The source of these data is patent publication US20200254065A1, “LONG-ACTING GLP-2 ANALOGS” (OPKO Biologics Ltd., priority 2019, published 2020).

Square brackets hold non-standard residues; d marks the D form. Peptide text beside a SMILES is read from it. Nle = CCCC[C@H](N)C(=O)O

The conditions of data set [1]: circulating native GLP-2; in humans; cited from earlier work.
Data set [2] can be described thus: Stability of GLP-2 analogues on incubation at 37° C. (appearance, O.D. reading, RP-HPLC). The format is physicochemical. To be noted: following 48 h incubation at 37° C. Here is the method: The GLP-2 analogues were tested for stability via appearance, O.D. reading (A.280, and A.325) and RP-HPLC (purity, and peak area) following t=0, 1 day, and 48 h incubation at 37° C.

For data set [3] the following is noted: Apraglutide, as previously reported, cited from earlier work.
Another data set deals with T1, GLP-2 receptor (Homo sapiens, UniProt O95838).
T1 sequence (O95838 1-553): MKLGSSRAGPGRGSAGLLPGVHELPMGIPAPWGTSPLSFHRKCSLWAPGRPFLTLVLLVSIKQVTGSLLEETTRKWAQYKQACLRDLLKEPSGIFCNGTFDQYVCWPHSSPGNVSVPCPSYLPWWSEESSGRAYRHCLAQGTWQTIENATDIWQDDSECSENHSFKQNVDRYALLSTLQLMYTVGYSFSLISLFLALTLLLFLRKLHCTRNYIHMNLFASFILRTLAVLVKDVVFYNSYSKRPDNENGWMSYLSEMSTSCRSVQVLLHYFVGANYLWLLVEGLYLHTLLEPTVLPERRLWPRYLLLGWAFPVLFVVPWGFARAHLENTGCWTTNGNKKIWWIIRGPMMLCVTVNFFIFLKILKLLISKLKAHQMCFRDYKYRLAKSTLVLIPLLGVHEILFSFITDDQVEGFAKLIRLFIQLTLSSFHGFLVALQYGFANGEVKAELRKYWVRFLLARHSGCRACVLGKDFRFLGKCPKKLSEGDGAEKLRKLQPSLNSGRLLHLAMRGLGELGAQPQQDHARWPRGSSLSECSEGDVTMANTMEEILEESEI
Nature of the data set: GLP-2 receptor Cell Based Assay (CBA). Particulars: EC50 (nM) Average, average of 3 independent CBA; different GLP-2R Assay Kit lot (Table 8).

Data set [4] in a line: 2-compartmental pharmacokinetic modelling (MONOLIX 2018R2). The class given is in vivo, rat. To be noted: rat, in vivo. The method, then:
An in-depth PK modeling was performed to address the unexpected differences in half life, distribution, and pharmacological effect between V4, Cys-FMS-V4, and Apraglutide in the rat model. The analysis was performed with MONOLIX 2018R2 suite using a 2-compartmental pharmacokinetic model. The data used in this analysis was comprised from 3 independent experiments (data is presented as their average). The concentration versus time data of V4 that was formed from the Cys-FMS-V4 conjugate (the hydrolyzed peptide) was described appropriately using the values of the pharmacokinetic parameters of V4 peptide. Thus, the disposition of the hydrolyzed V4 was identical to that of the V4 peptide following the IV and SC administration.
The pharmacokinetics of Apraglutide in our studies was determined after SC administration. […] Based on this assumption, the values of volumes of distribution and clearance (Vpept, Vss, Vbeta, and CL) were calculated for Apraglutide (Table 13). The values of the other parameters of Apraglutide in Table 14 (the rate constants and the half-lives) are not dependent on this assumption.

A short description of data set [5]: PK after single SC injection in rats (LC-MS/MS). To be noted: rat, in vivo, 2 mg/kg. The method, then:
To support the pharmacodynamic effects of V4 and Cys-FMS-V4 as detailed in Example 9, a pharmacokinetic analysis was also conducted. In this study (Study reference 15204), all animals were injected SC on Day 1 with 2 mg/kg peptide content of V4, Cys-FMS-V4 and Apraglutide. Blood samples were collected at 2, 8, 12, 24, 36, 48, 72, 96, 120 hours, and Days 7, 8, 9, 10, 11, 12, 13 and 14 post-dose administration and subsequently taken to LC-MS/MS analysis to determine plasma levels of each compound. For Cys-FMS-V4, a 2-analyte method was applied to determine the plasma concentrations of both the full conjugate and the V4 that was hydrolyzed from it (V4 hydrolyzed). Plasma concentrations (μM), as measured by using the LC-MS/MS method, of V4 peptide, Cys-FMS-V4, hydrolyzed V4, and Apraglutide are presented in FIG. 17.

Procedure for GLP-2 receptor: Evaluation of in vitro binding affinity of the different peptides was assessed by using Cell Based Assay (CBA) in the presence of escalating doses of the different peptides.

Take “NH2-HADGSFSDEMNTILDNLAARDFINWLIQTKITD-COOH [native GLP-2]”: the “Biological (in vivo) half-life” value in data set [1] is given as “approximately 7 minutes”.

The term EC50 denotes the concentration at which the effect is half-maximal. The half-life is how long it takes for the measured level to halve. Read a low half-life as fast loss. For orientation: AUC(0-inf) means the area under the concentration-time curve extrapolated to infinity. The low end stands for low exposure, the high end for high exposure. A word on the AUC(0-t): it is exposure summed from dosing to a finite time, without extrapolation to infinity. A low value points to low exposure. The CL/F is clearance divided by bioavailability, as obtained after extravascular dosing. By Cmax is commonly meant the peak of the concentration-time curve. Broadly, the Tmax is the time from dosing to the highest level. A word on the Vd/F: it is the volume of distribution divided by bioavailability. For `CCCC[C@H](NC(=O)[C@H](CCC(=O)O)NC(=O)[C@H](CC(=O)O)NC(=O)[C@H](CO)NC(=O)[C@H](Cc1ccccc1)NC(=O)[C@H](CO)NC(=O)CNC(=O)[C@H](CC(=O)O)NC(=O)CNC(=O)[C@@H](N)Cc1cnc[nH]1)C(=O)N[C@H](Cc1ccccc1)C(=O)N[C@H](C(=O)N[C@H](C(=O)N[C@@H](CC(C)C)C(=O)N[C@@H](CC(=O)O)C(=O)N[C@@H](CC(C)C)C(=O)N[C@@H](CC(C)C)C(=O)N[C@@H](C)C(=O)N[C@@H](C)C(=O)N[C@@H](CCCNC(=N)N)C(=O)N[C@@H](CC(=O)O)C(=O)N[C@@H](Cc1ccccc1)C(=O)N[C@H](C(=O)N[C@@H](CC(N)=O)C(=O)N[C@@H](Cc1c[nH]c2ccccc12)C(=O)N[C@@H](CC(C)C)C(=O)N[C@H](C(=O)N[C@@H](CCC(N)=O)C(=O)N[C@H](C(=O)N[C@@H](CCCCN)C(=O)N[C@H](C(=O)N[C@H](C(=O)N[C@@H](CC(=O)O)C(N)=O)[C@@H](C)O)[C@@H](C)CC)[C@@H](C)O)[C@@H](C)CC)[C@@H](C)CC)[C@@H](C)CC)[C@@H](C)O` [Variant 1, reference compound] (H-HGDGSFSDE[Nle][dF]TILDLLAARDFINWLIQTKITD-NH2), in data set [2], the Solubility via appearance entry is reported as “V1: opaque”. The “Stability via RP-HPLC main peak” value in data set [2] (change of main peak) is reported as “V1: −20%”. For the same compound, the Fpept in data set [3] (assumed absolute SC bioavailability in rats) is recorded as 0.74. Moreover, in data set [3] (assumed), the “Absolute bioavailability following SC administration in rats” value is 74%. The compound also had an EC50 at GLP-2 receptor of 1.7 nM. Moreover, in data set [4], the k12 is 0.0065 h⁻¹, the k21 was 0.0068 h⁻¹, the “ka—pept” value came to 0.1661 h⁻¹ and the kpepte was 0.0855 h⁻¹. In data set [4] (sc), this compound came in with a CL of 0.222 mL/min/kg, a Vd of 2.12 L/kg, a Vpept of 0.156 L/kg and a Vss of 0.303 L/kg. Moreover, the half-life in data set [4] (sc, t1/2 absorption) was 4.17 h. In data set [4] (t1/2 alpha), this compound had a half-life of 7.5 h. The same compound showed a half-life in data set [4] (t1/2 beta) of 110 h. Besides, in data set [5], the AUC(0-inf) amounted to 29.4 µM·h, the exposure AUC(0-t) turned out to be 29.2 µM·h, the apparent clearance (CL/F) was 0.3 mL/min/kg and the concentration peaked (Cmax) at 1950 nM. In data set [5], the “Time post injection up to which detectable in blood” value is no more than 120 h, the Tmax is 8 h, the Vd/F turned out to be 0.38 L/kg and the half-life was 14.5 h.
